The values below come from patent US12485115B2, “Biased NMDA receptor modulators and uses thereof” (EDWARD VIA COLLEGE OF OSTEOPATHIC MEDICINE, priority 2018, dated 2025).

Each structure is given as a SMILES string. Like-named read-outs stand apart in the source and are kept apart here.

Assay type in all cases: cell-based
Assay [1] has as its target GluN1/2A (Homo sapiens, UniProt Q05586+Q12879). As to the kind of experiment: NMDA receptor subunit selectivity of CNS004 analogs, average response, 1/2A. The note with it: compound 100 μM.
In assay [2] the target is GluN1/2B (Homo sapiens, UniProt Q05586+Q13224). As to the kind of experiment: NMDA receptor subunit selectivity of CNS004 analogs, average response, 1/2B. To be noted: compound 100 μM.
Chain of GluN1/2B (Q13224 27-1484, other chains not shown): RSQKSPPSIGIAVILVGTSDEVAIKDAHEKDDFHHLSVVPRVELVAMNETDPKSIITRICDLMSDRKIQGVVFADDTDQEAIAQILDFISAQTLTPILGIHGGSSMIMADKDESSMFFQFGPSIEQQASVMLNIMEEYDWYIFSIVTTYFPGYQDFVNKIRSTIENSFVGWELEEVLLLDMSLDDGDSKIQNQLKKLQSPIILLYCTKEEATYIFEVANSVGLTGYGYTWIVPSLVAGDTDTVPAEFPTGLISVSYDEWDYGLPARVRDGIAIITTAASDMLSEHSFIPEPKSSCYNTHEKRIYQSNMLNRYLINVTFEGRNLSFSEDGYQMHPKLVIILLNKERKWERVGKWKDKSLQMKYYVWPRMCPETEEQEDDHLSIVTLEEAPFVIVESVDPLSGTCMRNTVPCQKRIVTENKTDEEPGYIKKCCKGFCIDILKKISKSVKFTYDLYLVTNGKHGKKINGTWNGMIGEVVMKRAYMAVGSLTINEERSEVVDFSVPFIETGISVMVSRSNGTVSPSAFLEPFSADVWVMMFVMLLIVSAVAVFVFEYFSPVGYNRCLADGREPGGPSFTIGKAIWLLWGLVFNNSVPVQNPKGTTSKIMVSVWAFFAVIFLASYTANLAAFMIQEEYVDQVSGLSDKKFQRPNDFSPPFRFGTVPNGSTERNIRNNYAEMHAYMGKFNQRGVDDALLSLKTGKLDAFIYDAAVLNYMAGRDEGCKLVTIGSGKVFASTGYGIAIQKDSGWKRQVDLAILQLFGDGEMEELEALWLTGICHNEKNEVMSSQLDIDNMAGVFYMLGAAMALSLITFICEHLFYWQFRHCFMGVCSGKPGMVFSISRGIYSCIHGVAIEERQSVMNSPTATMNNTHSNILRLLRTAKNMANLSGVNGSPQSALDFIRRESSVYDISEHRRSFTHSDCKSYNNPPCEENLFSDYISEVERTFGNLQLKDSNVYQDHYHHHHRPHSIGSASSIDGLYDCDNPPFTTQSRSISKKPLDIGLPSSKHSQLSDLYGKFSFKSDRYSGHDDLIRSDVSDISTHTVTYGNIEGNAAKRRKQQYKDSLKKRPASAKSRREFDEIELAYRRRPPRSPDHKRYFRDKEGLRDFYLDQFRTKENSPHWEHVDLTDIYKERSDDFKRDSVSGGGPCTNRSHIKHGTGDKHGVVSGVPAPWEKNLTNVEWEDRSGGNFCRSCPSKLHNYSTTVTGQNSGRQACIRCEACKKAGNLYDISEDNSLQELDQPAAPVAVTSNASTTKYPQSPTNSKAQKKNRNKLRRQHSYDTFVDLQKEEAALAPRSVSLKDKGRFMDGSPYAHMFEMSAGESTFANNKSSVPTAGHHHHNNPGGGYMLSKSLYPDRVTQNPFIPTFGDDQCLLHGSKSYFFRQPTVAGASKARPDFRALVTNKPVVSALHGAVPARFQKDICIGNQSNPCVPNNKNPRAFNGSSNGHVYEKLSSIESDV
Assay [3] deals with GluN1/2A/2B (TH) (Homo sapiens, UniProt Q05586+Q12879+Q13224). As to the kind of experiment: NMDA receptor subunit selectivity of CNS004 analogs, average response, TH. The note with it: compound 100 μM.
Assay [4] concerns the target GluN1/2A/2B triheteromeric NMDA receptor (Homo sapiens, UniProt Q05586+Q12879+Q13224). As to the kind of experiment: Two-electrode voltage clamp (TEVC), Xenopus oocytes expressing recombinant GluN1/2A/2B. On the procedure:
Briefly, appropriate combinations of cRNA encoding different NMDA receptor subunits were injected into Xenopus oocytes and incubated at about 18° C. for about 2-4 days before TEVC assays. TEVC assays were performed with a −60 mV holding potential.
In general terms: Two-electrode voltage clamp holds a large cell at a set potential and records current.

For assay [5], the target named is T1, GluN1/2A NMDA receptor (Homo sapiens, UniProt Q05586+Q12879). As to the kind of experiment: Two-electrode voltage clamp (TEVC), Xenopus oocytes expressing recombinant GluN1/2A. On the procedure: (§1) Two-electrode voltage clamp)TEVC) and patch clamp electrophysiology techniques were used to study CNS004 induced changes in NMDA receptor functions. Briefly, appropriate combinations of cRNA encoding different NMDA receptor subunits were injected into Xenopus oocytes and incubated at about 18° C. for about 2-4 days before TEVC assays. TEVC assays were performed with a −60 mV holding potential. […]
T1 sequence (Q12879 23-1464, other chains not shown): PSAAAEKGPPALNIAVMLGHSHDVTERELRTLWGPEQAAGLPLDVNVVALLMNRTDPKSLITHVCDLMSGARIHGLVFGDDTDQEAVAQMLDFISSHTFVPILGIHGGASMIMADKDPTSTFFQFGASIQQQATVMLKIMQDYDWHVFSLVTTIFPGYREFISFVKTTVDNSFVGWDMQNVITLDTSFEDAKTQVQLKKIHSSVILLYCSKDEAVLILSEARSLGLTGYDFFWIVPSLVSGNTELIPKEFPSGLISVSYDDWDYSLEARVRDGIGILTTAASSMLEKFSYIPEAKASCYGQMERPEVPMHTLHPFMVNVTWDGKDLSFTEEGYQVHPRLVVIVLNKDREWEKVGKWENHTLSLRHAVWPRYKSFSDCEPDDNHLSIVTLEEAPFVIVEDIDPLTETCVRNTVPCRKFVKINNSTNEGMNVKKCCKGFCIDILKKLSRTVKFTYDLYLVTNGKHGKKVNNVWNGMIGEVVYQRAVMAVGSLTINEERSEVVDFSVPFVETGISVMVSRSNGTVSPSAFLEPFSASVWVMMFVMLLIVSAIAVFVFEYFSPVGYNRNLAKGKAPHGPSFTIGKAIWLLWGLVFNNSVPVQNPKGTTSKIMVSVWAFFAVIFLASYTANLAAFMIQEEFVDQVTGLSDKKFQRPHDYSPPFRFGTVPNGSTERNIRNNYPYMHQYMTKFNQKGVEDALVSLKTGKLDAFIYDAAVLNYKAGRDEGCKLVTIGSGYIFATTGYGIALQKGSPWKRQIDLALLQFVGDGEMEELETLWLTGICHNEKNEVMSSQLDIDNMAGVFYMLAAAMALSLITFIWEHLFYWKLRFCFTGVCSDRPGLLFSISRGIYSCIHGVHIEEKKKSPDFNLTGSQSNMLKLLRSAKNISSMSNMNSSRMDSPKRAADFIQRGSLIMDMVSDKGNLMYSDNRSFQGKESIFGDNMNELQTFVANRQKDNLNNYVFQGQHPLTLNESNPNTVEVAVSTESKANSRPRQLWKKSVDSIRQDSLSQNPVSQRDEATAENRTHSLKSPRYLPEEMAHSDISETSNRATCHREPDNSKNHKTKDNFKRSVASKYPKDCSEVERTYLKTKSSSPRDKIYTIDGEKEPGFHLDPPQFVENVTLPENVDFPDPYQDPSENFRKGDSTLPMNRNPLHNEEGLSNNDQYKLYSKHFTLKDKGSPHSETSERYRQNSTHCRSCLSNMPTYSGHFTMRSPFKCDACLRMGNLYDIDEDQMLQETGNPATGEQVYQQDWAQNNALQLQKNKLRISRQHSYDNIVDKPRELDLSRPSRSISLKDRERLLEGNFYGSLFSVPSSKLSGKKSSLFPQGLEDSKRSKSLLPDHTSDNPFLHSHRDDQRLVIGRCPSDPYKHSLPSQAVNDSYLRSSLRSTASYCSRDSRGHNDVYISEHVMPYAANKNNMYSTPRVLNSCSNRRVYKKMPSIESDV

For assay [6], the target named is GluN1/2B NMDA receptor (Homo sapiens, UniProt Q05586+Q13224). Description: Two-electrode voltage clamp (TEVC), Xenopus oocytes expressing recombinant GluN1/2B. Here is the method: as §1
Chain of GluN1/2B NMDA receptor (Q13224 27-1484, other chains not shown): as the sequence (Q13224 27-1484, other chains not shown) above
Assay [7] has as its target GluN1/2C NMDA receptor (Homo sapiens, UniProt Q05586+Q14957). Description: Two-electrode voltage clamp (TEVC), Xenopus oocytes expressing recombinant GluN1/2C. The note with it: 10 μM glycine and 10 μM glutamate; EC50 ND, n=6. Here is the method: as §1
For assay [8], the target named is GluN1/2D NMDA receptor (Homo sapiens, UniProt O15399+Q05586). Description: Two-electrode voltage clamp (TEVC), Xenopus oocytes expressing recombinant GluN1/2D. The note with it: 10 μM glycine and 10 μM glutamate; EC50 ND, n=5. Here is the method:
as §1

Assay [9] concerns the target T1, GluN1/2A NMDA receptor. As to the kind of experiment: Patch clamp electrophysiology, HEK293T cells expressing recombinant GluN1/2A. The note with it: 100 μM CNS004. On the procedure: (§2) Patch clamp electrophysiology was also performed. Briefly, HEK293T cells were transfected with cDNA encoding NMDA receptor subunits 18-24 hours prior to patch clamp procedures. The effect of CNS004 on the agonist induced NMDA receptor function was evaluated at −80 mV.
A general note: Patch clamp records ionic current or voltage across a cell membrane.

The target of assay [10] is T2, GluN1/2A/2B NMDA receptor (Homo sapiens, UniProt Q05586+Q12879+Q13224).
T2 construct: expressed in transfected cells; host or cells: HEK293T
Description: Patch clamp electrophysiology, HEK293T cells expressing recombinant GluN1/2A/2B. On the procedure:
as §2

`COc1cccc(C(=O)NC(=S)N2CCCCC2c2cccnc2)c1OC` (stereo not drawn) [Compound 41]: the “Average Response (% inhibition), 1/2A” value in assay [1] came out at 15.8054 % inhibition. For the same molecule, the “Average Response (% inhibition), 1/2B” value in [2] is listed as 0.6785 % inhibition. Besides, in assay [3], the “Average Response (% inhibition), TH” value was determined as 27.54 % inhibition.
As for `O=C(NC(=S)N1CCCCC1c1cccnc1)c1ccc(P(=O)(O)O)cc1` (stereo not drawn) [Compound 7], in assay [1], the “Average Response (% inhibition), 1/2A” value is −1.858 % inhibition. In assay [2], the “Average Response (% inhibition), 1/2B” value was 3.872 % inhibition. Also, the “Average Response (% inhibition), TH” value in [3] is on record as 16.4617 % inhibition.
On the same counts, the results for `O=C(NC(=S)N1CCCCC1c1cccnc1)c1ccc(C2CC2)cc1` (stereo not drawn) [Compound 5] are 7.117 % inhibition, 9.468 % inhibition and −2.571 % inhibition.
Consider `CC(C(O)c1ccc(O)cc1)N1CCC(Cc2ccccc2)CC1` (stereo not drawn) [ifenprodil, reference compound], for which the “selectivity for GluN1/2A/2B receptor (FIG. 9G)” value in assay [4] (GluN1/2B selective antagonist) is “intermediate selectivity”.
With `O=C(NC(=S)N1CCCCC1c1cccnc1)c1cccc(F)n1` (stereo not drawn) [Compound 40], in assay [1], the “Average Response (% inhibition), 1/2A” value is on record as −3.81 % inhibition. The “Average Response (% inhibition), 1/2B” value in assay [2] is −56.1908 % inhibition. Besides, the “Average Response (% inhibition), TH” value in assay [3] is −3.494 % inhibition.
Take `O=C(NC(=S)N1CCCCC1c1cccnc1)c1ccc(CCCF)cc1` (stereo not drawn) [Compound 6]: the “Average Response (% inhibition), 1/2A” value in assay [1] is recorded as −21.076 % inhibition. In assay [2], the “Average Response (% inhibition), 1/2B” value was 6.739 % inhibition. Besides, the “Average Response (% inhibition), TH” value in assay [3] was found to be 7.444 % inhibition.
`O=C(NC(=S)N1CCCCC1c1cccnc1)c1ccc(Cl)c(F)c1` (stereo not drawn) [Compound 9]: the “Average Response (% inhibition), 1/2A” value in assay [1] is listed as −31.9381 % inhibition. In assay [2], the “Average Response (% inhibition), 1/2B” value is −19.0618 % inhibition. Besides, in assay [3], the “Average Response (% inhibition), TH” value is given as −11.9509 % inhibition.
Consider `Fc1ccc(C(=S)NC(=S)N2CCCCC2c2cccnc2)cc1` (stereo not drawn) [Compound 3], for which, in assay [1], the “Average Response (% inhibition), 1/2A” value is recorded as −52.246 % inhibition. The “Average Response (% inhibition), 1/2B” value in assay [2] is given as −45.1553 % inhibition. For the same molecule, in assay [3], the “Average Response (% inhibition), TH” value is given as −13.1155 % inhibition.
For `O=C(NC(=S)N1CCCCC1c1cccnc1)c1ccc(C(F)(F)F)cc1` (stereo not drawn) [Compound 2], the “Average Response (% inhibition), 1/2A” value in [1] was −76.1696 % inhibition. The “Average Response (% inhibition), 1/2B” value in assay [2] is −14.5863 % inhibition. Besides, in [3], the “Average Response (% inhibition), TH” value is given as −3.954 % inhibition.
For the molecule `O=C(NC(=O)N1CCCCC1c1cccnc1)c1ccc(F)cc1` (stereo not drawn) [Compound 4], the “Average Response (% inhibition), 1/2A” value in assay [1] was 20.43 % inhibition. Also, the “Average Response (% inhibition), 1/2B” value in assay [2] came to 5.755 % inhibition. Moreover, in assay [3], the “Average Response (% inhibition), TH” value was found to be 4.722 % inhibition.
For `O=C(NC(=S)N1CCCCC1c1cccnc1)c1ccc(F)cc1` (stereo not drawn) [CNS004, 4-Fluoro-N-(2-(pyridin-3-yl)piperidine-1-carbonothioyl)benzamide], the “effect on GluN1/2A (DRC)” value in [5] (10 μM glycine and 10 μM glutamate, EC50 ND, n=6) is “minimally inhibited”. Also, the “change of glycine potency on GluN1/2A” value in assay [5] (30 uM CNS4, glutamate 100 uM) was “increase in glycine potency”. Further, the “change of glutamate potency on GluN1/2A” value in assay [5] (30 uM CNS4, glycine 100 uM) is given as “increase in glutamate potency”. In assay [5] (100 μM glycine and 100 μM glutamate, EC50 not determined, n=3), the “activity on GluN1/2A (averaged dose response curve)” value is reported as “minimal activity”. Besides, the “change of glycine potency on GluN1/2B” value in assay [6] (30 uM CNS4, glutamate 100 uM) is “increase in glycine potency”. Besides, the “activity on GluN1/2B (averaged dose response curve)” value in assay [6] (100 μM glycine and 100 μM glutamate, EC50 not determined, n=4) is on record as “minimal activity”. Moreover, the EC50 in [6] (read-out: EC50 of potentiation of GluN1/2B (averaged and normalized DRC)) was 8.67 ± 2.77 µM; in assay [4] (10 μM glycine and 10 μM glutamate, n=6, read-out: EC50 of potentiation of GluN1/2A/2B (averaged and normalized DRC)) it was 39 ± 22.4 µM; in [4] (100 μM glycine and 100 μM glutamate, n=5, read-out: EC50 of potentiation of GluN1/2A/2B (averaged dose response curve)), 160 ± 15.4 µM. For the same molecule, the “change of glycine potency on GluN1/2A/2B” value in assay [4] (30 uM CNS4, glutamate 100 uM) is on record as “increase in glycine potency”. In addition, the “change of glutamate potency on TH (GluN1/2A/2B)” value in assay [4] (30 uM CNS4, glycine 100 uM) was “increase in glutamate potency”. Further, in assay [4] (30 μM and 100 μM CNS004), the “effect on glycine and/or glutamate potency in GluN1/2A/2B (FIGS. 15A-15H)” value was “increases Glycine and/or Glutamate Potency”. Moreover, the “effect on agonist induced current in GluN1/2A/2B in three sequences of application” value in [4] (100 μM CNS004, 100 μM glycine+100 μM glutamate, co-application, agonist pre-application, CNS004 pre-application) is “potentiation”. The “effect of pre-application of CNS004 alone on agonist induced current response” value in assay [4] (recombinant GluN1/2A, GluN1/2B and GluN1/2A/2B traces (FIG. 1E)) was “did not change the agonist induced current response”. Further, in [4] (recombinant GluN1/2A, GluN1/2B and GluN1/2A/2B traces (FIG. 1E), no agonist), the “receptor activation in the absence of agonist glutamate or glycine” value is listed as “did not activate the receptor”. Moreover, the “effect on GluN1/2C (DRC)” value in assay [7] is on record as “no activity”. Moreover, the “effect on GluN1/2D (DRC)” value in assay [8] is “minimally inhibited”. The “effect of co-application with agonist on steady-state currents, GluN1/2A” value in assay [9] (30 μM glycine and 100 μM glutamate) is on record as “potentiates steady-state currents”. The “effect on 1/2A receptor currents at reduced glutamate” value in [9] (100 μM glycine and 300 nM glutamate) is listed as “largely potentiated”. The “effect of co-application with agonist on steady-state currents, GluN1/2A/2B” value in assay [10] (100 μM CNS004, 30 μM glycine and 100 μM glutamate) was “potentiates steady-state currents”. For the same molecule, in assay [10] (100 μM CNS004, 100 μM glycine and 300 nM glutamate), the “effect on 1/2A/2B currents at reduced glutamate” value is “inhibits”. The “effect of CNS004 pre-application on steady-state currents, GluN1/2A/2B” value in [10] (100 μM CNS004 pre-application, 30 μM glycine and 100 μM glutamate) is “steep reduction in steady-state currents”. Moreover, the “effect of CNS004 pre-application on desensitization, GluN1/2A/2B” value in assay [10] (100 μM CNS004 pre-application, 30 μM glycine and 100 μM glutamate, GluN1/2A/2B only) was “promotes desensitization”.
`COCCCc1ccc(C(=O)NC(=S)N2CCCCC2c2cccnc2)cc1` (stereo not drawn) [Compound 8]: the “Average Response (% inhibition), 1/2A” value in assay [1] is on record as 0.4959 % inhibition. Moreover, the “Average Response (% inhibition), 1/2B” value in assay [2] was determined as 6.998 % inhibition. Moreover, in assay [3], the “Average Response (% inhibition), TH” value was found to be 8.377 % inhibition.
